Values after ≈ are worked out from the molar mass of the structure shown. Read-outs that look alike come from different tables or passages of the source.
Key:
Type in all cases: cell-based
[1] = test system: Aspergillus niger ATCC 6257; assay: agar incorporation test, antifungal activity; settings: lowest concentration showing no growth or sporulation, four days at 28° C; for MIC: Aspergillus niger, ATCC6257, 96 h, read-out: Antifungal Activity A. niger, minimum inhibitory concentration
Protocol: The anti-fungal activity of the test compounds was determined employing the "agar incorporation" technique, utilizing spores from Aspergillus niger ATCC 6257 as a representative organism. Test solutions were prepared as described above in acetone or dimethylsulfoxide. A source of carbon agar such as Mycophil Agar was used. The agar was melted and cooled and placed in a constant temperature water bath at 45° C + 3° C. About 13-14 ml of the agar was then poured into a sterile Petri dish, the required amount of test solution to give the desired concentration immediately added thereto, and the dish rotated and swirled by hand to obtain a uniform mixture before the agar hardened.
The hardened plates were inoculated with the test organism by fishing spores from a 7-14 day old slant with the inocculating needle and spotting the spores on the plates, usually in several places. The inoculated plates were incubated for four days in an incubator maintained at 28° C +2° C and with a relative humidity of 95%+.
The lowest concentration of each test compound showing no growth or sporulation of the test organism was taken as the minimum inhibitory concentration and is reported in the following tabulation.
(§1) The button assay and agar incorporation tests were also utilized to determine the corresponding inhibitory concentrations of various control materials, viz., the following well known commercial antimicrobials and fungicides: hexachlorophene, tribromosalicylanilide, trichlorocarbanilide,Captan (N-(trichloromethylthio)4cyclohexene-1,2-dicarboximide) and Zineb (zinc ethylenebis[dithiocarbamate]). The minimum inhibitory concentration of each of the various control materials against the respective organisms is indicated in Table IV below: […]

[2] = test system: Bacillus subtilis ATCC 9525; assay: button assay, antibacterial activity; settings: 24 hours at 37° C; for MIC: Bacillus subtilis, ATCC9525, lowest concentration showing a clear zone of inhibition, read-out: Antibacterial Activity B.subtilis, minimum inhibitory concentration
Protocol: (§2) In the test program, the minimum inhibitory concentrations of the respective test compounds against various Gram positive and Gram negative bacteria were determined, employing the "button assay" method. The test organisms utilized were standard cultures of Staphylococcus aureus ATCC 6538 DR, a penicillin resistant Gram positive bacterium; Bacillus subtilis ATCC 9525, a spore-forming Gram positive bacillus; and Salmonella typhosa ATCC 6539, a Gram negative bacterium.
(§3) In the tests the respective compounds were dissolved in a suitable solvent, usually acetone or dimethylsulfoxide, to give solutions with known concentrations of active material. The highest concentration was ordinarily 1000 ppm (parts per million) [0.1%], and dilutions were made in suitable steps down to 1 ppm. Penicillin test buttons of filter paper having a diameter of 13 mm (socalled "Peniassay" buttons) were added to each solution within a test tube and left submerged for five minutes. They were then removed and left to dry on paper towels under sterile conditions. A laminar flow sterile cabinet equipped with ultraviolet lamps operating under positive air pressure was utilized for this purpose.
(§4) An 18-24 hour old nutrient broth culture (standard 1.5% nutrient agar) prepared in conventional manner from a slant and having passed through at least three consecutive daily transfers was used for inoculation. Melted and cooled sterile agar (45° C) was inoculated with the respective broth cultures by addition of 20 ml broth per liter of agar. The agar was then dispensed into Petri dishes (20 ml per plate) under sterile conditions and allowed to harden.
(§5) The test buttons were placed on the surface of the hardened agar and the plates incubated for 24 hours at 37° C. Where, on inspection, a clear zone of inhibition appeared around the button, inhibition of growth was presumed. Where growth touched the button there was no inhibition. For each of the test compounds, the lowest concentration showing a clear zone is reported as the inhibitory concentration in the following table.
as §1

[3] = test system: Staphylococcus aureus ATCC 6538 DR; assay: button assay, antibacterial activity; settings: for MIC: Staphylococcus aureus, ATCC6538, 24 h, read-out: Antibacterial Activity S.aureus, minimum inhibitory concentration
Protocol: as §2, §3, §4
as §5, with “table. […]” for “table.”

[4] = test system: Salmonella typhosa ATCC 6539; assay: button assay, antibacterial activity; settings: for MIC: Salmonella enterica, read-out: Antibacterial Activity S.typhosa, minimum inhibitory concentration
Protocol: as §2
as §3, with “The” for “In the tests the respective compounds were dissolved in a suitable solvent, usually acetone or dimethylsulfoxide, to give solutions with known concentrations of active material. The”
as §4
as §5, with “table. […]” for “table.”

[5] = button assay, lowest concentration showing a clear zone of inhibition, 24 hours at 37° C

N#CC=CS(=O)(=O)c1ccc(NP(=O)(Nc2ccc(S(=O)(=O)C=CC#N)cc2)N(CCCl)CCCl)cc1 [Example 52, di-(2-chloroethyl)amido-di-4-(2-cyanoethenesulfonylanilido)phosphine oxide]
Antifungal Activity A. niger, minimum inhibitory concentration [1]: 100 ppm | Antibacterial Activity B.subtilis, minimum inhibitory concentration ([2]; lowest concentration showing a clear zone of inhibition): 10 ppm | Antibacterial Activity S.aureus, minimum inhibitory concentration [3, 5]: 10 ppm | Antibacterial Activity S.typhosa, minimum inhibitory concentration [4, 5]: 10 ppm

N#CC=CS(=O)(=O)c1ccc(NS(=O)(=O)c2cccc(S(=O)(=O)Nc3ccc(S(=O)(=O)C=CC#N)cc3)c2)cc1 [Example 33, N.N'-bis-[4-(2-cyanoethenesulfonyl)phenyl]-1,3-phenylenesulfonamide]
MIC [1]: > 1000 µg/mL | MIC [2]: 10000 µg/mL (≈ 16200 µM) | MIC [3]: 300 µg/mL (≈ 485 µM) | MIC ([4]; 24 h): 100 µg/mL (≈ 162 µM)

COc1ccc(S(=O)(=O)Nc2ccc(S(=O)(=O)C=CC#N)cc2)cc1 [Example 28, 3-[4-(4-methoxybenzenesulfonamido)benzenesulfonyl] acrylonitrile]
MIC [1]: > 1000 µg/mL | MIC [2]: 10 µg/mL (≈ 26.4 µM) | MIC [3]: 1 µg/mL (≈ 2.64 µM) | MIC ([4]; 24 h): 5 µg/mL (≈ 13.2 µM)

N#CC=CS(=O)(=O)c1ccc(NS(=O)(=O)c2ccc(Cl)cc2[N+](=O)[O-])cc1 [Example 23.3, 3-[4-(4-chloro-2-nitrobenzenesulfonamido)benzenesulfonyl]acrylonitrile]
MIC [1]: 100 µg/mL (≈ 234 µM) | MIC [2]: 10 µg/mL (≈ 23.4 µM) | MIC [3]: 10 µg/mL (≈ 23.4 µM) | MIC ([4]; 24 h): 20 µg/mL (≈ 46.7 µM)

N#CC=CS(=O)(=O)c1ccc(NSC(Cl)(Cl)Cl)cc1 [Example 42, 3-(4-trichlorosulfenamidobenzenesulfonyl)acrylonitrile]
MIC [1]: 1000 µg/mL (≈ 2800 µM) | MIC [2]: 20 µg/mL (≈ 55.9 µM) | MIC [3]: 20 µg/mL (≈ 55.9 µM) | MIC ([4]; 24 h): 20 µg/mL (≈ 55.9 µM)

N#CC=CS(=O)(=O)c1ccc(NP(=O)(Nc2ccc(S(=O)(=O)C=CC#N)cc2)c2ccccc2)cc1 [Example 58, phenyl-di-[4-(2-cyanoethenesulfonyl)anilido]phosphine oxide]
MIC [1]: 100 µg/mL (≈ 186 µM) | MIC [2]: 10 µg/mL (≈ 18.6 µM) | MIC [3]: 20 µg/mL (≈ 37.1 µM) | MIC ([4]; 24 h): 10 µg/mL (≈ 18.6 µM)

CCOC(=O)c1ccc(S(=O)(=O)Nc2ccc(S(=O)(=O)C=CC#N)cc2)cc1 [Example 27, 3-[4-(4-[…])BENZENESULFONYL]ACRYLONITRILE]
MIC [1]: 100 µg/mL (≈ 238 µM) | MIC [2]: 20 µg/mL (≈ 47.6 µM) | MIC [3]: 10 µg/mL (≈ 23.8 µM) | MIC ([4]; 24 h): 10 µg/mL (≈ 23.8 µM)

CC(=O)Nc1ccc(S(=O)(=O)C=CC#N)cc1 [3-(4-acetamidobenzenesulfonyl)acrylonitrile, reference compound]
MIC [1]: > 1000 µg/mL | MIC [2]: 20 µg/mL (≈ 79.9 µM) | MIC [3]: 50 µg/mL (≈ 200 µM) | MIC ([4]; 24 h): 20 µg/mL (≈ 79.9 µM)

N#CC=CS(=O)(=O)c1ccc(NS(=O)(=O)c2ccc([N+](=O)[O-])cc2[N+](=O)[O-])cc1 [Example 23.1, 3-[4-(2,4-dinitrobenzenesulfonamido)benzenesulfonyl]acrylonitrile]
MIC [1]: 100 µg/mL (≈ 228 µM) | MIC [2]: 50 µg/mL (≈ 114 µM) | MIC [3]: 5 µg/mL (≈ 11.4 µM) | MIC [4, 5]: 50 µg/mL (≈ 114 µM)

N#CC=CS(=O)(=O)c1ccc(NP(=S)(Nc2ccc(S(=O)(=O)C=CC#N)cc2)c2ccccc2)cc1 [Example 59, PHENYL-DI-[4-(2-CYANOETHENESULFONYL)ANILIDO]PHOSPHINE SULFIDE]
MIC [1]: 500 µg/mL (≈ 902 µM) | MIC [2]: 50 µg/mL (≈ 90.2 µM) | MIC [3]: 50 µg/mL (≈ 90.2 µM) | MIC [4, 5]: 50 µg/mL (≈ 90.2 µM)

N#CC=CS(=O)(=O)c1ccc(NS(=O)(=O)c2ccccc2[N+](=O)[O-])cc1 [Example 22.3, 3-[4-(2-nitrobenzenesulfonamido)benzenesulfonyl]acrylonitrile]
MIC [1]: > 1000 µg/mL | MIC [2]: ~50 µg/mL (≈ 127 µM) | MIC [3]: 10 µg/mL (≈ 25.4 µM) | MIC ([4]; 24 h): 100 µg/mL (≈ 254 µM)

CC(=O)Nc1nnc(S(=O)(=O)Nc2ccc(S(=O)(=O)C=CC#N)cc2)s1 [Example 38, 3-[4-(2-acetamido-1,3,4-thiadiazole-5-sulfonamido)benzenesulfonyl]acrylonitrile]
MIC [1]: 1000 µg/mL (≈ 2420 µM) | MIC [2]: 50 µg/mL (≈ 121 µM) | MIC [3]: 500 µg/mL (≈ 1210 µM) | MIC ([4]; 24 h): 100 µg/mL (≈ 242 µM)

N#CC=CS(=O)(=O)c1ccc(NS(=O)(=O)C=Cc2ccccc2)cc1 [Example 10, 3-[4-(2-phenylethenesulfonamido)benzenesulfonyl]acrylonitrile]
MIC [1]: > 1000 µg/mL | MIC [2]: 5 µg/mL (≈ 13.4 µM) | MIC [3]: 5 µg/mL (≈ 13.4 µM) | MIC ([4]; 24 h): 5 µg/mL (≈ 13.4 µM)

N#CC=CS(=O)(=O)c1ccc(NS(=O)(=O)c2ccccc2)cc1 [Example 11, 3-(4-benzene-sulfonamidobenzenesulfonyl)acrylonitrile]
MIC [1]: > 1000 µg/mL | MIC [2]: 50 µg/mL (≈ 144 µM) | MIC [3]: 20 µg/mL (≈ 57.4 µM) | MIC ([4]; 24 h): 50 µg/mL (≈ 144 µM)

N#CC=CS(=O)(=O)c1ccc(NS(=O)(=O)c2cc(Cl)cc(Cl)c2O)cc1 [Example 24, 3-[4-(3,5-dichloro-2-hydroxybenzenesulfonamido)-benzenesulfonyl]acrylonitrile]
MIC [1]: 1000 µg/mL (≈ 2310 µM) | MIC [2]: 300 µg/mL (≈ 692 µM) | MIC [3]: 300 µg/mL (≈ 692 µM) | MIC ([4]; 24 h): 300 µg/mL (≈ 692 µM)

N#CC=CS(=O)(=O)c1ccc(NP(=O)(OCC(Br)CBr)OCC(Br)CBr)cc1 (centres unmarked) [Example 56, 0,0-bis(2,3-dibromopropyl)-N-4-(2-cyanoethenesulfonyl)phenyl phosphoramide]
MIC [1]: 100 µg/mL (≈ 145 µM) | MIC [2]: 10 µg/mL (≈ 14.5 µM) | MIC [3]: 10 µg/mL (≈ 14.5 µM) | MIC [4, 5]: 10 µg/mL (≈ 14.5 µM)

CCCCS(=O)(=O)Nc1ccc(S(=O)(=O)C=CC#N)cc1 [Example 3, 3-(4-butanesulfonamidobenzenesulfonyl)acrylonitrile]
MIC [1]: > 1000 µg/mL | MIC [2]: 20 µg/mL (≈ 60.9 µM) | MIC [3]: 50 µg/mL (≈ 152 µM) | MIC ([4]; 24 h): 50 µg/mL (≈ 152 µM)

O=C1C2CC=CCC2C(=O)N1SC(Cl)(Cl)Cl (centres unmarked) [Captan, N-(trichloromethylthio)4cyclohexene-1,2-dicarboximide, reference compound]
MIC [1]: 300 µg/mL (≈ 998 µM) | MIC [2]: 100 µg/mL (≈ 333 µM) | MIC [3]: 25 µg/mL (≈ 83.2 µM) | MIC [4, 5]: 25 µg/mL (≈ 83.2 µM)

N#CC=CS(=O)(=O)c1ccc(NC(=O)c2cccc(S(=O)(=O)Nc3ccc(S(=O)(=O)C=CC#N)cc3)c2)cc1 [Example 31, N'-4-(2-cyanoethenesulfonyl)phenylN"-3-(2-cyanoethenesulfonyl)phenylsulfamoylbenzamide]
MIC [1]: 100 µg/mL (≈ 172 µM) | MIC [2]: 20 µg/mL (≈ 34.3 µM) | MIC [3]: 20 µg/mL (≈ 34.3 µM) | MIC ([4]; 24 h): 20 µg/mL (≈ 34.3 µM)

S=C([S-])NCCNC(=S)[S-].[Zn+2] [Zineb, zinc ethylenebis[dithiocarbamate], reference compound]
MIC [1]: > 1000 µg/mL | MIC [2]: 300 µg/mL | MIC [3]: 300 µg/mL | MIC [4, 5]: > 10000 µg/mL

CCS(=O)(=O)Nc1ccc(S(=O)(=O)C=CC#N)cc1 [Example 2, 3-(4-ethanesulfonamidobenzenesulfonyl)acrylonitrile]
MIC [1]: > 1000 µg/mL | MIC [2]: 20 µg/mL (≈ 66.6 µM) | MIC [3]: 100 µg/mL (≈ 333 µM) | MIC ([4]; 24 h): 20 µg/mL (≈ 66.6 µM)

N#CC=CS(=O)(=O)c1ccc(NS(=O)(=O)c2cccc(C(=O)O)c2)cc1 [Example 26, 3-[4-(3-carboxybenzenesulfonamido)-benzenesulfonyl]acrylonitrile]
MIC [1]: > 1000 µg/mL | MIC [2]: 10 µg/mL (≈ 25.5 µM) | MIC [3]: 10 µg/mL (≈ 25.5 µM) | MIC ([4]; 24 h): 10 µg/mL (≈ 25.5 µM)

N#CC=CS(=O)(=O)c1ccc(NS(=O)(=O)c2ccc(C3=CC3(Cl)Cl)cc2)cc1 [Example 32, 3-[4-(4-dichlorocarbostyrenesulfonamido)benzenesulfonyl]acrylonitrile]
MIC [1]: 1000 µg/mL (≈ 2200 µM) | MIC [2]: 5 µg/mL (≈ 11 µM) | MIC [3]: 5 µg/mL (≈ 11 µM) | MIC ([4]; 24 h): 5 µg/mL (≈ 11 µM)
